Drawing on patent publication US20250122191A1, “COMPOUNDS AS BCL-2 INHIBITORS” (Fochon Biosciences, Ltd, priority 2021, published 2025), this text covers IC50 for 10 compounds.

In general, IC50 refers to the concentration that gives 50% inhibition.

What all share (assay type): cell-based
Test [1] deals with Toledo cells. Put plainly: Cell proliferation assay (MTS), Toledo cells. Particulars: Homo sapiens, 72 h. In short, it runs like this: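 Toledo cells (RPMI-1640, 10% FBS) seeded at 30000 cells/well, rested 4 h, then exposed 72 h at 37 °C, 5% CO2 to compound at nine final concentrations, 1.5–10000 nM. Viability by MTS (2 h), absorbance at 490 nm. IC50 from the concentration-response.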

Test [2] concerns RS4;11-BCL-2 G101V cells. Description: Cell proliferation assay (MTS), RS4;11-BCL-2 G101V engineered cells. Particulars: Homo sapiens, 120 h, read-out: RS4, 11 BCL2-G101V IC50. In short, it runs like this:
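RS4;11 cells stably overexpressing mutant BCL-2 were seeded and pre-incubated 4 h (G101V, F104L) or 24 h (D103E, D103Y), then exposed to compound at 1.5–10000 nM for 120 h (G101V, F104L) or 72 h (D103E, D103Y) at 37 °C. Viability was read by MTS absorbance at 490 nm after 2 h; IC50 fitted.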

The test system of test [3] is RS4;11-BCL-2 D103E cells. Description: Cell proliferation assay (MTS), RS4;11-BCL-2 D103E engineered cells. The conditions noted are these: Homo sapiens, 72 h, read-out: RS4, 11 BCL2-D103E IC50. An excerpt:
MTS testing kit was purchased from Promega (Madison, WI, USA). The RPMI-1640, Fetal bovine serum and Penicillin-Streptomycin were purchased from BI (Biological Industries, Beit Haemek, Israel). Puromycin was purchased from Beyotime (shanghai, China). Dimethyl sulfoxide (DMSO) was purchased from Sigma (St. Louis., MO, USA). RS4;11-BCL-2 G101V (Cobioer Lot. #: CBD2021063013P4), RS4;11-BCL-2 D103E (Cobioer Lot. #: CBD2021063013P4), RS4;11-BCL-2 D103Y (Cobioer Lot. #: CBD2022012101P4) and RS4;11-BCL-2 F104L (Cobioer Lot. #: CBD2021063014P4) cells were cultured in RPMI1640 supplemented with 1 ug/mL puromycin, 100 U/mL Penicillin-Streptomycin and 10% FBS.
To investigate whether a compound is able to inhibit the activity of BCL-2 mutation in cells, a mechanism-based assay using engineered cell lines stably overexpressing BCL-2 mutation (RS4;11-BCL-2 G101V, RS4;11-BCL-2 D103E, RS4;11-BCL-2 D103Y, and RS4;11-BCL-2 F104L) was developed. In this assay, the inhibition of BCL-2 mutation was reflected by the inhibition of cell proliferation of engineered RS4;11 cells. Cells were plated into 96-well plates at optimized cell density (RS4;11-BCL-2 G101V: 5000 cells/well; RS4;11-BCL-2 D103E: 7500 cells/well; RS4;11-BCL-2 D103Y: 7500 cells/well; RS4;11-BCL-2 F104L: 5000 cells/well). Plates were incubated at 37° C., with 5% CO2 for 4 h (RS4;11-BCL-2 G101V, RS4;11-BCL-2 F104L) and 24 h (RS4;11-BCL-2 D103E, RS4;11-BCL-2 D103Y), respectively. Compounds were serially diluted and added to the plates with the final concentrations of 10000, 3333.3, 1111.1, 370.4, 123.5, 41.2, 13.7, 4.6 and 1.5 nM. Plates were incubated at 37° C., with 5% CO2 for 120 h (RS4; 11-BCL-2 G101V, RS4; 11-BCL-2 F104L) and 72 h (RS4;11-BCL-2 D103E, RS4;11-BCL-2 D103Y), respectively. 20 μl MTS was added into each well and the plates were incubated at 37° C., with 5% CO2 exactly for 2 h. The absorbance was measured by a microplate reader at 490 nm. IC50 values were calculated using GraphPad Prism 8.0 software.

Take `CCOc1nc2[nH]cc(F)c2cc1Oc1cc(N2CCC3(CC2)CC(N2CCN(Cc4ccc(OC)c(OC)c4)C[C@H]2c2ccccc2C(C)C)C3)ccc1C(=O)NS(=O)(=O)c1cnc(NC[C@H]2CC[C@](C)(O)CC2)c([N+](=O)[O-])c1` [Example 8, 4-(2-((R)-4-(3,4-dimethoxybenzyl)-2-(2-isopropylphenyl)piperazin-1-yl)-7-azaspiro[3.5]nonan-7-yl)-2-((6-ethoxy-3-fluoro-1H-pyrrolo[2,3-b]pyridin-5-yl)oxy)-N-((6-((((1r,4r)-4-hydroxy-4-methylcyclohexyl)methyl)amino)-5-nitropyridin-3-yl)sulfonyl)benzamide]: the IC50 in test [1] is 1 nM; in test [2] it was 1 nM; in test [3], 3 nM.
Turning to `COc1cc(CN2CCN(C3CC4(CCN(c5ccc(C(=O)NS(=O)(=O)c6cnc(NC[C@H]7CC[C@](C)(O)CC7)c([N+](=O)[O-])c6)c(Oc6cnc7[nH]cc(F)c7c6)c5)CC4)C3)[C@H](c3ccccc3C(C)C)C2)ccc1C1CC1` [Example 73, 4-(2-((R)-4-(4-cyclopropyl-3-methoxybenzyl)-2-(2-isopropylphenyl)piperazin-1-yl)-7-azaspiro[3.5]nonan-7-yl)-2-((3-fluoro-1H-pyrrolo[2,3-b]pyridin-5-yl)oxy)-N-((6-((((1r,4r)-4-hydroxy-4-methylcyclohexyl)methyl)amino)-5-nitropyridin-3-yl)sulfonyl)benzamide], the IC50 in test [1] turned out to be 1 nM; in test [2] it was 1 nM; in test [3], 3 nM.
Consider `COCCN1CCN(C2CC3(CCN(c4ccc(C(=O)NS(=O)(=O)c5cnc(NC[C@H]6CC[C@](C)(O)CC6)c([N+](=O)[O-])c5)c(Oc5cc6c(F)c[nH]c6nc5OC)c4)CC3)C2)[C@H](c2ccccc2C(C)C)C1` [Example 129, 2-((3-fluoro-6-methoxy-1H-pyrrolo[2,3-b]pyridin-5-yl)oxy)-N-((6-((((1r,4r)-4-hydroxy-4-methylcyclohexyl)methyl)amino)-5-nitropyridin-3-yl)sulfonyl)-4-(2-((R)-2-(2-isopropylphenyl)-4-(2-methoxyethyl)piperazin-1-yl)-7-azaspiro[3.5]nonan-7-yl)benzamide], for which the IC50 in test [1] was determined as 1 nM; in test [3], 3 nM.
Consider `COc1cc(CN2CCN(C3CC4(CCN(c5ccc(C(=O)NS(=O)(=O)c6cnc(NC[C@H]7CC[C@](C)(O)CC7)c([N+](=O)[O-])c6)c(Oc6cnc7[nH]cc(F)c7c6)c5)CC4)C3)[C@H](c3ccccc3C(C)C)C2)cnc1OC` [Example 259, 4-(2-((R)-4-((5,6-dimethoxypyridin-3-yl)methyl)-2-(2-isopropylphenyl)piperazin-1-yl)-7-azaspiro[3.5]nonan-7-yl)-2-((3-fluoro-1H-pyrrolo[2,3-b]pyridin-5-yl)oxy)-N-((6-((((1r,4r)-4-hydroxy-4-methylcyclohexyl)methyl)amino)-5-nitropyridin-3-yl)sulfonyl)benzamide], for which the IC50 in test [2] and in test [3] was 1 nM throughout.
For `CC(C)c1ccccc1[C@@H]1CN(CC2CCOCC2)CCN1C1CC2(CCN(c3ccc(C(=O)NS(=O)(=O)c4cnc(NC[C@H]5CC[C@](C)(O)CC5)c([N+](=O)[O-])c4)c(Oc4cnc5[nH]cc(F)c5c4)c3)CC2)C1` [Example 318, 2-((3-fluoro-1H-pyrrolo[2,3-b]pyridin-5-yl)oxy)-N-((6-((((1r,4r)-4-hydroxy-4-methylcyclohexyl)methyl)amino)-5-nitropyridin-3-yl)sulfonyl)-4-(2-((R)-2-(2-isopropylphenyl)-4-((tetrahydro-2H-pyran-4-yl)methyl)piperazin-1-yl)-7-azaspiro[3.5]nonan-7-yl)benzamide], the 50% inhibitory concentration (IC50) in test [2] and in test [3] was 1 nM each time.
As for `CC(C)c1ccccc1[C@@H]1CN(C2CCOCC2)CCN1C1CC2(CCN(c3ccc(C(=O)NS(=O)(=O)c4cnc(NC[C@H]5CC[C@](C)(O)CC5)c([N+](=O)[O-])c4)c(Oc4cnc5[nH]cc(F)c5c4)c3)CC2)C1` [Example 320, 2-((3-fluoro-1H-pyrrolo[2,3-b]pyridin-5-yl)oxy)-N-((6-((((1r,4r)-4-hydroxy-4-methylcyclohexyl)methyl)amino)-5-nitropyridin-3-yl)sulfonyl)-4-(2-((R)-2-(2-isopropylphenyl)-4-(tetrahydro-2H-pyran-4-yl)piperazin-1-yl)-7-azaspiro[3.5]nonan-7-yl)benzamide], the IC50 in test [2] and in test [3] was 1 nM throughout.
Take `COc1nc2[nH]cc(F)c2cc1Oc1cc(N2CCC3(CC2)CC(N2CCN(C4CCC(OC)CC4)C[C@H]2c2ccccc2C(C)C)C3)ccc1C(=O)NS(=O)(=O)c1cnc(NC[C@H]2CC[C@](C)(O)CC2)c([N+](=O)[O-])c1` (stereo partly drawn) [Example 325, 2-((3-fluoro-6-methoxy-1H-pyrrolo[2,3-b]pyridin-5-yl)oxy)-N-((6-((((1r,4r)-4-hydroxy-4-methylcyclohexyl)methyl)amino)-5-nitropyridin-3-yl)sulfonyl)-4-(2-((R)-2-(2-isopropylphenyl)-4-(4-methoxycyclohexyl)piperazin-1-yl)-7-azaspiro[3.5]nonan-7-yl)benzamide]: the IC50 in test [2] and in test [3] was 1 nM in each case.
For `COc1nc2[nH]cc(F)c2cc1Oc1cc(N2CCC3(CC2)CC(N2CCN(C[C@H]4COCCO4)C[C@H]2c2ccccc2C(C)C)C3)ccc1C(=O)NS(=O)(=O)c1cnc(NC[C@H]2CC[C@](C)(O)CC2)c([N+](=O)[O-])c1` [Example 328, 4-(2-((R)-4-(((S)-1,4-dioxan-2-yl)methyl)-2-(2-isopropylphenyl)piperazin-1-yl)-7-azaspiro[3.5]nonan-7-yl)-2-((3-fluoro-6-methoxy-1H-pyrrolo[2,3-b]pyridin-5-yl)oxy)-N-((6-((((1r,4r)-4-hydroxy-4-methylcyclohexyl)methyl)amino)-5-nitropyridin-3-yl)sulfonyl)benzamide], the IC50 in test [2] and in test [3] was 1 nM throughout.
Take `CC(C)c1ccccc1[C@@H]1CN(Cc2ccc(S(C)(=O)=O)cc2)CCN1C1CC2(CCN(c3ccc(C(=O)NS(=O)(=O)c4cnc(NC[C@H]5CC[C@](C)(O)CC5)c([N+](=O)[O-])c4)c(Oc4cnc5[nH]cc(F)c5c4)c3)CC2)C1` [Example 329, 2-((3-fluoro-1H-pyrrolo[2,3-b]pyridin-5-yl)oxy)-N-((6-((((1r,4r)-4-hydroxy-4-methylcyclohexyl)methyl)amino)-5-nitropyridin-3-yl)sulfonyl)-4-(2-((R)-2-(2-isopropylphenyl)-4-(4-(methylsulfonyl)benzyl)piperazin-1-yl)-7-azaspiro[3.5]nonan-7-yl)benzamide]: the IC50 in test [1] and in test [3] was 1 nM each time.
As to `CC(C)c1ccccc1[C@@H]1CN(C[C@H]2COCCO2)CCN1C1CC2(CCN(c3ccc(C(=O)NS(=O)(=O)c4cnc(NC[C@H]5CC[C@](C)(O)CC5)c([N+](=O)[O-])c4)c(Oc4cnc5[nH]cc(F)c5c4)c3)CC2)C1` [Example 330, 4-(2-((R)-4-(((S)-1,4-dioxan-2-yl)methyl)-2-(2-isopropylphenyl)piperazin-1-yl)-7-azaspiro [3.5]nonan-7-yl)-2-((3-fluoro-1H-pyrrolo[2,3-b]pyridin-5-yl)oxy)-N-((6-((((1r,4r)-4-hydroxy-4-methylcyclohexyl)methyl)amino)-5-nitropyridin-3-yl)sulfonyl)benzamide], the IC50 in test [2] and in test [3] was 1 nM in each case.
